Data as given in ChEMBL document CHEMBL3885881, “DrugMatrix”.

Species: Rattus norvegicus
Assay: DrugMatrix - Regimen: Daily Repeat
Assay type: toxicity, organism-based, Sprague-Dawley
Set-up: regimen Daily Repeat, gender Male, age 6-8 weeks
Conditions: in vivo, po, route oral GAVAGE, vehicle .5 % CMC; for ABSOLUTE BASOPHIL / ABSOLUTE EOSINOPHIL / ABSOLUTE LYMPHOCYTE / ABSOLUTE MONOCYTE / ABSOLUTE SEGMENTED NEUTROPHIL / BASOPHIL / EOSINOPHIL / ERYTHROCYTE COUNT / HEMATOCRIT / HEMOGLOBIN / LEUKOCYTE COUNT / LYMPHOCYTE / MEAN CORPUSCULAR HEMOGLOBIN / MEAN CORPUSCULAR HEMOGLOBIN CONCENTRATION / MEAN CORPUSCULAR VOLUME / MONOCYTE / NEUTROPHIL / NUCLEATED RED BLOOD CELLS / PLATELET COUNT: tissue Blood; for ALANINE AMINOTRANSFERASE / ALBUMIN / ALKALINE PHOSPHATASE / ASPARTATE AMINOTRANSFERASE / BLOOD UREA NITROGEN / CARBON DIOXIDE / CHLORIDE / CHOLESTEROL / CREATINE PHOSPHOKINASE / CREATININE / GLUCOSE / LACTATE DEHYDROGENASE / LIPASE / PHOSPHORUS / POTASSIUM / SODIUM / TOTAL BILIRUBIN / TOTAL PROTEIN / URIC ACID: tissue Plasma
[1] = 100 mg/kg, 120 h, dose level Low, time 5 day
[2] = 501 mg/kg, 72 h, dose level High, time 3 day
[3] = 501 mg/kg, 120 h, dose level High, time 5 day

## CCc1ccc(C(=O)C(C)CN2CCCCC2)cc1 (centres undefined) [EPERISONE]
[1]
  ABSOLUTE BASOPHIL: 0 CELLS/uL
  ABSOLUTE EOSINOPHIL: 0 CELLS/uL
  ABSOLUTE LYMPHOCYTE: 13749 CELLS/uL
  ABSOLUTE MONOCYTE: 246.33 CELLS/uL
  ABSOLUTE SEGMENTED NEUTROPHIL: 1338 CELLS/uL
  BASOPHIL: 0%
  EOSINOPHIL: 0%
  ERYTHROCYTE COUNT: 5.46 x10E6/uL
  HEMATOCRIT: 34.27%
  HEMOGLOBIN: 13.2 G/DL
  LEUKOCYTE COUNT: 15.33 x10E3/uL
  LYMPHOCYTE: 89.67%
  MEAN CORPUSCULAR HEMOGLOBIN: 24.17 pg
  MEAN CORPUSCULAR HEMOGLOBIN CONCENTRATION: 38.53 G/DL
  MEAN CORPUSCULAR VOLUME: 62.83 fL
  MONOCYTE: 1.67%
  NEUTROPHIL: 8.67%
  NUCLEATED RED BLOOD CELLS: 0 /100WBC
  PLATELET COUNT: 1278.33 x10E3/uL
  ALANINE AMINOTRANSFERASE: 50 u/L
  ALBUMIN: 4.27 G/DL
  ALKALINE PHOSPHATASE: 325.67 u/L
  ASPARTATE AMINOTRANSFERASE: 101.33 u/L
  BLOOD UREA NITROGEN: 17.33 mg/dL
  CARBON DIOXIDE: 25.33 mmol/L
  CHLORIDE: 106 MEQ/L
  CHOLESTEROL: 66.33 mg/dL
  CREATINE PHOSPHOKINASE: 609 u/L
  CREATININE: 0.21 mg/dL
  GLUCOSE: 159 mg/dL
  LACTATE DEHYDROGENASE: 465 u/L
  LIPASE: 9.67 u/L
  PHOSPHORUS: 13.17 mg/dL
  POTASSIUM: 6.21 MEQ/L
  SODIUM: 144.2 MEQ/L
  TOTAL BILIRUBIN: 0.13 mg/dL
  TOTAL PROTEIN: 5.9 G/DL
  URIC ACID: 1.77 mg/dL
[2]
  ABSOLUTE BASOPHIL: 0 CELLS/uL
  ABSOLUTE EOSINOPHIL: 0 CELLS/uL
  ABSOLUTE LYMPHOCYTE: 13225.33 CELLS/uL
  ABSOLUTE MONOCYTE: 319.33 CELLS/uL
  ABSOLUTE SEGMENTED NEUTROPHIL: 888.67 CELLS/uL
  BASOPHIL: 0%
  EOSINOPHIL: 0%
  ERYTHROCYTE COUNT: 5.61 x10E6/uL
  HEMATOCRIT: 35.1%
  HEMOGLOBIN: 13.27 G/DL
  LEUKOCYTE COUNT: 14.43 x10E3/uL
  LYMPHOCYTE: 91.33%
  MEAN CORPUSCULAR HEMOGLOBIN: 23.63 pg
  MEAN CORPUSCULAR HEMOGLOBIN CONCENTRATION: 37.83 G/DL
  MEAN CORPUSCULAR VOLUME: 62.53 fL
  MONOCYTE: 2.33%
  NEUTROPHIL: 6.33%
  NUCLEATED RED BLOOD CELLS: 0 /100WBC
  PLATELET COUNT: 1433.33 x10E3/uL
  ALANINE AMINOTRANSFERASE: 58.67 u/L
  ALBUMIN: 3.97 G/DL
  ALKALINE PHOSPHATASE: 399 u/L
  ASPARTATE AMINOTRANSFERASE: 91.67 u/L
  BLOOD UREA NITROGEN: 14.33 mg/dL
  CARBON DIOXIDE: 25 mmol/L
  CHLORIDE: 103.67 MEQ/L
  CHOLESTEROL: 64.67 mg/dL
  CREATINE PHOSPHOKINASE: 345 u/L
  CREATININE: 0.23 mg/dL
  GLUCOSE: 157.67 mg/dL
  LACTATE DEHYDROGENASE: 414.67 u/L
  LIPASE: 9 u/L
  PHOSPHORUS: 11.17 mg/dL
  POTASSIUM: 6.18 MEQ/L
  SODIUM: 143.13 MEQ/L
  TOTAL BILIRUBIN: 0.2 mg/dL
  TOTAL PROTEIN: 5.33 G/DL
  URIC ACID: 2.03 mg/dL
[3]
  ABSOLUTE BASOPHIL: 0 CELLS/uL
  ABSOLUTE EOSINOPHIL: 46.67 CELLS/uL
  ABSOLUTE LYMPHOCYTE: 15630.33 CELLS/uL
  ABSOLUTE MONOCYTE: 287 CELLS/uL
  ABSOLUTE SEGMENTED NEUTROPHIL: 969.33 CELLS/uL
  BASOPHIL: 0%
  EOSINOPHIL: 0.33%
  ERYTHROCYTE COUNT: 5.98 x10E6/uL
  HEMATOCRIT: 36.77%
  HEMOGLOBIN: 13.93 G/DL
  LEUKOCYTE COUNT: 16.93 x10E3/uL
  LYMPHOCYTE: 92.33%
  MEAN CORPUSCULAR HEMOGLOBIN: 23.33 pg
  MEAN CORPUSCULAR HEMOGLOBIN CONCENTRATION: 37.93 G/DL
  MEAN CORPUSCULAR VOLUME: 61.5 fL
  MONOCYTE: 1.67%
  NEUTROPHIL: 5.67%
  NUCLEATED RED BLOOD CELLS: 0 /100WBC
  PLATELET COUNT: 1391 x10E3/uL
  ALANINE AMINOTRANSFERASE: 69 u/L
  ALBUMIN: 4.43 G/DL
  ALKALINE PHOSPHATASE: 394.33 u/L
  ASPARTATE AMINOTRANSFERASE: 96.33 u/L
  BLOOD UREA NITROGEN: 16 mg/dL
  CARBON DIOXIDE: 28 mmol/L
  CHLORIDE: 106.33 MEQ/L
  CHOLESTEROL: 63.33 mg/dL
  CREATINE PHOSPHOKINASE: 1265 u/L
  CREATININE: 0.3 mg/dL
  GLUCOSE: 145.67 mg/dL
  LACTATE DEHYDROGENASE: 187.33 u/L
  LIPASE: 9.33 u/L
  PHOSPHORUS: 12.2 mg/dL
  POTASSIUM: 6.24 MEQ/L
  SODIUM: 145.8 MEQ/L
  TOTAL BILIRUBIN: 0.2 mg/dL
  TOTAL PROTEIN: 6.07 G/DL
  URIC ACID: 1.97 mg/dL
